Here are results for 64 compounds from PubChem BioAssay AID720513 (Broad Institute, 2013).

Records with an inconclusive call do not appear.

The assay has as its system U2OS PGC1a acetylation AlphaLISA, overnight. In words: PGC1a acetylation increase, cellular AlphaLISA – cell-based, cherry-picked samples, set 6, dose response (AID 720513).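 Further: cells made to overexpress flag tagged PGC1a plus GCN5 acetyltransferase by viral infection.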
With `COc1ccc(S(=O)(=O)NNC(=O)c2csc(-n3nc(C)cc3C(F)(F)F)n2)cc1`, the AC40 was 7.43 µM. The result for `O=C(Nc1ccc(F)cc1F)N1CCCN(c2ccc([N+](=O)[O-])cn2)CC1` reads 3.36 µM; that for `Cc1ccc2[nH]c(=O)c(CN(Cc3ccc4c(c3)OCO4)Cc3nnnn3C3CCCC3)cc2c1`, 7.98 µM. Then `CCOCCn1c(CN(Cc2ccccc2)Cc2ccccc2)nc2c1c(=O)n(C)c(=O)n2C`, with 6.65 µM; and `C[C@@H]1CN([C@H](C)CO)C(=O)c2c(c3ccccc3n2C)-c2ccccc2CO[C@@H]1CN(C)C(=O)c1ccc(F)cc1`, with 6.65 µM. The result for `Cc1c(OCc2ccc(C(=O)O)cc2)ccc2c(-c3ccccc3)cc(=O)oc12` reads 7.28 µM; that for `CCOC(=O)c1ccccc1NS(=O)(=O)c1ccc(OCC)cc1`, 3.3 µM. In the case of `COc1ccc(-c2csc3nc(C)nc(N4CCC(C)CC4)c23)cc1OC`, the AC40 is 3.8 µM. For `O=C1Nc2cc(S(=O)(=O)N3CCCC3)ccc2N2CCCC12` (centres undefined), the AC40 was 16.6 µM.

Regarding `O=C(NCCC1CCCCN1S(=O)(=O)c1cccs1)C(=O)Nc1ccc(F)cc1F` (centres undefined), the AC40 is 9.6 µM. The result for `c1ccc(C(c2nnnn2Cc2cccs2)N2CCN(C3CCCC3)CC2)cc1` (centres undefined) reads 0.483 µM; that for `CC(C)[C@H](C)NC(=O)N(C)C[C@H]1OCc2ccccc2-c2c(n(C)c3ccccc23)C(=O)N([C@H](C)CO)C[C@H]1C`, 5.85 µM; that for `Cc1cccc(Nc2nnc(-c3ccc(C(=O)N4C[C@H]5C[C@H](C4)c4cccc(=O)n4C5)cc3)c3ccccc23)c1`, 11.2 µM.

Regarding `O=C(c1ccco1)N1CCN(c2nnc(-c3ccccc3)c3ccccc23)CC1`, the AC40 is 4.28 µM. As to `C[C@@H]1CN([C@H](C)CO)C(=O)c2c(c3ccccc3n2C)-c2ccccc2CO[C@@H]1CN(C)C(=O)Nc1ccccc1C(F)(F)F`, the AC40 was 3.71 µM. Then `O=C(CCCCCN1C(=O)c2cccc3cccc(c23)C1=O)NCc1cccnc1`, with 0.207 µM; and `O=C(c1ccccc1)c1nn(-c2ccc(Cl)cc2)c(=O)cc1C(F)(F)F`, with 0.451 µM; and `Cc1ccc(NC(=O)c2c(C(F)(F)F)nn(C)c2SCc2ccc(Cl)cc2)cc1C`, with 5.5 µM. Then `CCCCC(=O)Nc1ccc(NC(=O)c2cccs2)cn1`, with 18.9 µM; and `CCOC(=O)C1=CC[C@@H](c2ccccc2)N(S(=O)(=O)c2ccc(C)cc2)[C@H]1c1cccc(OC)c1`, with 9.62 µM. Then `Cc1ccc(OC(=O)N(C)C[C@H]2OCc3ccccc3-c3c(n(C)c4ccccc34)C(=O)N([C@@H](C)CO)C[C@H]2C)cc1`, with 4.98 µM. Consider `CSCCC(c1nnnn1-c1c(C)cccc1C)N1CCC(n2c(=O)[nH]c3ccccc32)CC1` (centres undefined), for which the AC40 is 1.32 µM. With `Cc1ccc(OCC(=O)NCCCNC(=O)c2cccnc2)cc1C`, the AC40 was 2.1 µM. Then `CCOCCn1c(CN(Cc2ccccc2)Cc2ccccc2)nc2c1c(=O)[nH]c(=O)n2C`, with 5.12 µM; and `Cc1cccc(Oc2nccc(C(F)(F)F)c2C(=O)Nc2ccc(F)cc2F)c1`, with 11.9 µM. Then `Cc1ccc(NC(=O)CN(C)S(=O)(=O)c2cccs2)c(Br)c1`, with 14.7 µM.

Turning to `CCN(CC)S(=O)(=O)c1c(Br)cc(C)cc1Br`, the AC40 is 1.29 µM. The result for `Cc1ccc(CNC(=O)C2CC(c3ccc([N+](=O)[O-])cc3)=NO2)cc1` (centres undefined) reads 4 µM; that for `COc1ccc(S(=O)(=O)N(Cc2ccccc2)Cc2nc(-c3ccccc3)no2)cc1`, 8.22 µM; that for `Cc1ccc(-c2nnc(Nc3ccc4c(c3)OCO4)c3ccccc23)cc1S(=O)(=O)NCCO`, 2.08 µM.

In the case of `N#Cc1ccc(C(=O)CSc2nnc(-c3ccc(C(F)(F)F)cn3)s2)cc1`, the AC40 is 17.8 µM. `CCn1nc(C)c(CN2CCc3c([nH]c4ccccc34)C2C(C)(C)C)c1C` (centres undefined): the AC40 was 0.88 µM. The result for `COc1ccccc1NC(=O)c1ccc(NC(=O)CNC(=O)c2ccc(OC)c(OC)c2)cc1` reads 15.7 µM; that for `O=C(C(Cc1ccccc1)n1cccc1)N1CCN(c2ccccc2)CC1` (centres undefined), 7.54 µM; that for `O=C(Nc1ccc(Nc2ccncc2)cc1)c1ccc([N+](=O)[O-])cc1`, 3.4 µM. As for `CC(C)c1ccc(NC(=O)c2ccc3c(c2)CCN3S(C)(=O)=O)cc1`, the AC40 was 13.9 µM. The result for `C[C@@H]1CN([C@@H](C)CO)C(=O)c2c(c3ccccc3n2C)-c2ccccc2CO[C@@H]1CN(C)C(=O)c1ccccc1` reads 5.25 µM; that for `COc1ccc(S(=O)(=O)N2CC[C@@H]3[C@H](CO)Nc4ccc(-c5ccccc5F)cc4[C@@H]32)cc1`, 12.4 µM. Then `CCSc1ccc(NC(=O)c2cccnc2)cc1`, with 1.65 µM; and `Cn1cc(-c2ccc(C(=O)NCc3cccc(Cl)c3)c3occc23)cn1`, with 4.85 µM. The result for `O=C(C1CCC1)N1CCN(S(=O)(=O)c2ccccc2)CC1` reads 2.24 µM; that for `c1ccc(-c2c(-c3ccccc3)n(Cc3ccco3)c3ncnc(NCCCn4ccnc4)c23)cc1`, 1.86 µM. As to `COc1ccc(CCC(=O)NCCS(=O)(=O)N2CCN(c3ccccc3)CC2)cc1`, the AC40 was 13.4 µM. The result for `CCOc1ccccc1NC(=O)CSc1cn[nH]n1` reads 2.47 µM.

Regarding `CCOc1ccc(N(C)S(=O)(=O)c2cc(-c3cc(C)no3)ccc2OC)cc1`, the AC40 was 5.29 µM. Then `Cc1ccc(S(=O)(=O)N(Cc2ccc(F)cc2)Cc2ccco2)cc1`, with 6.76 µM. The result for `COc1ccc(N(C(=O)c2snc(C(N)=O)c2N)C(C(=O)NC2CCCC2)c2ccco2)c(OC)c1` (centres undefined) reads 3.85 µM; that for `O=C(CN1CCC(N2CCCCC2)CC1)N1CCCc2ccccc21`, 11.1 µM. The result for `COc1ccc(-c2c(-c3cc(OC)cc(OC)c3)n(C)c3ccc(-c4cnc(N)nc4)cc23)cc1` reads 0.974 µM; that for `COc1cccc(-c2ccc(C3[C@@H]4CN(Cc5ccccn5)C[C@H]3N4)cc2)c1` (some centres undefined), 13.5 µM; that for `CCCCn1c(CN(Cc2ccccc2)Cc2ccccc2)nc2c1c(=O)n(C)c(=O)n2C`, 3.88 µM. In the case of `COc1cccc(CN2C[C@@H]3N[C@H](C2)C3c2ccc(-c3ccccc3F)cc2)c1` (some centres undefined), the AC40 was 16.3 µM.

Regarding `Cn1ncc(Cl)c1C(=O)Nc1sc2c(c1C(N)=O)CCC2`, the AC40 was 5.65 µM. The result for `CC1CC1C(=O)OCC(=O)NCc1ccc(Cl)cc1` (centres undefined) reads 18.2 µM; that for `C[C@@H]1CN([C@@H](C)CO)C(=O)c2c(c3ccccc3n2C)-c2ccccc2CO[C@@H]1CN(C)C(=O)Oc1ccccc1`, 7.26 µM. The result for `O=C(Nc1cccnc1)c1ccc(Oc2ccccc2)cc1` reads 2.19 µM; that for `Cc1ccc2oc(-c3ccc(NC(=O)c4cccnc4)cc3)nc2c1`, 2.03 µM.

On to `Cc1ccccc1Cn1cc(NC(=O)c2cc(-c3cccs3)on2)cn1`, for which the AC40 was 1.32 µM. The result for `O=C(NCc1ccccc1)C1Cc2c(-c3ccc(Cl)cc3)ccnc2O1` (centres undefined) reads 6.16 µM; that for `C[C@@H]1CN([C@@H](C)CO)C(=O)c2c(c3ccccc3n2C)-c2ccccc2CO[C@@H]1CN(C)C(=O)Nc1ccccc1C(F)(F)F`, 6.99 µM; that for `CCOC(=O)c1oc2ccc(S(=O)(=O)N3CCC(C)CC3)cc2c1C`, 17.1 µM. Then `CCCCC(=O)Nc1ccc(C(=O)NCCCn2ccnc2)cc1`, with 0.269 µM; and `Cc1cc(C)c2nc(N(CCCN(C)C)C(=O)c3ccc(S(=O)(=O)N4CCCCCC4)cc3)sc2c1`, with 2.9 µM; and `Cc1sc(NC(=O)c2cccs2)nc1-c1ccccc1`, with 0.581 µM.
